Laboratory results published in paper PMC3278406 (PLoS ONE, 2012).
Entries after “also recorded” stand apart in the source; their conditions may differ.

Target: Stx2 toxoid (Escherichia phage 933W, UniProt P09386)
Assay type: binding, Escherichia coli O157:H7

Stx2 toxoid, sequence (P09386 whole entry, looked up): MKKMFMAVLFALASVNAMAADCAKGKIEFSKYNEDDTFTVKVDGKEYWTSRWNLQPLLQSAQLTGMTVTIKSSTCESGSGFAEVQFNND

Compound | Stx2 binding | also measured
CC(C)CCC[C@@H](C)[C@H]1CC[C@H]2[C@@H]3CC[C@H]4CCCC[C@]4(C)[C@H]3CC[C@]12C [5αCh, 5-α-Cholestane] |  | Stx2 binding to Gb3 in the presence of sterol and PC: failed to support binding
CCCCCCCCCCCCC/C=C/[C@@H](O)[C@@H](N)CO[C@@H]1O[C@H](CO)[C@@H](O[C@@H]2O[C@H](CO)[C@H](O[C@H]3O[C@H](CO)[C@H](O)[C@H](O)[C@H]3O)[C@H](O)[C@H]2O)[C@H](O)[C@H]1O [Lyso-Gb3, Lyso-globotriaosylsphingosine] | did not bind | 
CC(C)CCC[C@@H](C)[C@H]1CC[C@H]2[C@@H]3CC=C4C[C@@H](O)CC[C@]4(C)[C@H]3CC[C@]12C [cholesterol] |  | change of Stx2 binding to Gb3 in the absence of cholesterol: statistically significant decrease; change of Stx2 binding to Gb3 in the presence of cholesterol alone: statistically significant increase
Asialo GM1 gangliosides [aGM1] | failed to support binding | 
Asialo GM2 gangliosides [aGM2] | failed to support binding | 
Galactosyl ceramide [Gal-Cer] | failed to support binding | 
Globotetraosyl ceramide [Gb4] | increased binding | Kd (read-out: apparent Kd of Stx2): 14 nM
Globotriaosyl ceramide, Ceramide trihexoside [Gb3] | poor binding; also recorded: increased binding | concentration of Stx2 needed to reach saturated binding: above 1 µM
Glucosyl ceramide [Glc-Cer] | failed to support binding | 
Lactosyl ceramide [Lac-Cer] | failed to support binding | 
